Like-named read-outs stand apart in the source and are kept apart here.
What was measured:
yeast 20S proteasome [1] = molecular target: T1, yeast 20S proteasome (Saccharomyces cerevisiae, UniProt P25043+P30656+P38624); assay: X-ray crystallography of yeast 20S proteasome:ligand complex, mode of action; type: binding; conditions: yCP:homoSalA crystal structure, crystals soaked at 5 mM; no tetrahydropyran ring formation
T1 construct: endogenous in cells; host or cells: S. cerevisiae (complex purified from yeast by a cited earlier protocol)
Procedure: Therefore, we elucidated the yCP:homoSalA complex at molecular resolution to investigate its mode of action. Active yCP crystals were soaked with final compound concentrations of 5 mM for 24 h. Subsequently, diffraction data were recorded to 2.9 Å resolution (Table 2) and data processing, as well as structural refinement, were performed according to previous protocols. The crystallographic data were refined to a final Rfree value of 23.3% with root mean square deviation bond and angle values less than 0.007 Å and 1.1°, respectively (PDB ID 6GOP, Table 2). […] While the active site nucleophile Thr1O^γ opens the β-lactone ring, the positively charged Thr1NH3^+-terminus acts as a Brønsted acid generating a C4-hydroxyl group from the hydrolyzed β-lactone. […]
While the electron density map offered no evidence for fluoride elimination, the complex structure determined after 24 h crystal soaking time depicts complete displacement of the leaving group. […]
Crystals of the 20S proteasome from S. cerevisiae were grown in hanging drops at 20 °C as previously described and incubated for […] with homoSalA at 5 mM. […] Crystals were soaked in a cryoprotecting buffer (30% MPD, 20 mM of magnesium acetate, 100 mM MES (pH 6.9)) and frozen in a stream of liquid nitrogen gas at 100 K. X-ray intensities were evaluated using the XDS program package. […]

[2] = molecular target: yeast 20S proteasome, caspase-like (C-L) activity; conditions: luminogenic enzyme assay; cited from earlier work
[3] = test system: yeast 20S proteasome, trypsin-like (T-L) activity; conditions: luminogenic enzyme assay; cited from earlier work
[4] = test system: yeast 20S proteasome, chymotrypsin-like (ChT-L) activity; conditions: luminogenic enzyme assay; cited from earlier work
[5] = test system: yeast 20S proteasome, chymotrypsin-like (ChT-L) activity; assay: luminogenic enzyme assay, chymotrypsin-like activity; type: biochemical
Procedure: The proteasome inhibitory activity of the unnatural analog, homoSalA, was measured in a luminogenic enzyme assay in comparison to SalA enabling assessment of all three active sites of yCP.

[6] = test system: chymotrypsin-like activity of the proteasome; parameters: method as in PMID 7732382; conditions: cited from earlier work
yeast 20S proteasome [7] = molecular target: T1, yeast 20S proteasome; conditions: cited from earlier work
human proteasome = test system: human proteasome; parameters: method as in PMID 16286248; conditions: cited from earlier work

SMILES | mode of action (reversibility of proteasome inhibition) (yeast 20S proteasome [1]) | IC50 [2] | IC50 [3] | ChT-L Activity 20S Proteasome (IC50, nM) [4] | IC50 [4] | potency towards caspase- and trypsin-like activities relative to chymotrypsin-like activity [5] | IC50 [6] | mode of action (reversibility of proteasome inhibition) (yeast 20S proteasome [7]) | IC50 (human proteasome) | mode of action (reversibility of proteasome inhibition) (yeast 20S proteasome [7]; chloro-ethyl moiety forms a tetrahydrofuran ring)
C[C@@]12OC(=O)[C@]1([C@@H](O)[C@@H]1C=CCCC1)NC(=O)[C@@H]2CCCCl [(–)-homoSalA (3), (–)-homosalinosporamide A] | reversible binder | 144 ± 12 nM | 118 ± 28 nM | sub-nanomolar range | 0.7 ± 0.04 nM | two orders of magnitude less potent | – | – | – | –
CC(C)[C@H](O)[C@@]12NC(=O)[C@H](C)[C@@H]1OC2=O [omuralide (5), omuralide] | – | – | – | – | – | – | 49 nM | – | – | –
CC[C@H]1C(=O)N[C@@]2([C@@H](O)[C@@H]3C=CCCC3)C(=O)O[C@@]12C [SalB, salinosporamide B] | – | – | – | – | – | – | – | slow reversible CP inhibitor | – | –
C[C@@]12OC(=O)[C@]1([C@@H](O)[C@@H]1C=CCCC1)NC(=O)[C@@H]2CCCl [(–)-SalA (1), salinosporamide A] | – | 111 ± 22 nM | 39 ± 7 nM | sub-nanomolar range | 0.8 ± 0.08 nM | – | – | – | 1.3 nM | irreversibly blocks the CP
